Common to all, as to assay: DTP human tumour cell line panel, 48 h
Assay [1] concerns NCI-H23.
Assay [2] has as its system NCI-H522.
The subject of assay [3] is SW-620.
Assay [4] concerns HL-60.
Assay [5] deals with SN12C.
The subject of assay [6] is HCT-116.
In assay [7] the test system is MOLT-4.
In assay [8] the test system is SK-MEL-5.
The test system of assay [9] is SK-MEL-2.
Assay [10] relates to EKVX.
The test system of assay [11] is 786-0.
For assay [12], the system named is DMS-273.
Assay [13] deals with UACC-62.
The subject of assay [14] is OVCAR-4.
For assay [15], the system named is Hs-578T.
In assay [16] the test system is CAKI-1.
The test system of assay [17] is MCF7.
In assay [18] the test system is NCI/ADR-RES.
Assay [19] deals with HOP-92.
The test system of assay [20] is HCC 2998.

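A five-concentration, 48-hour dose response in 96-well plates underlies each endpoint, interpolated linearly between surrounding concentrations. GI50 marks 50% less growth.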 Activity calls are given as the source filed them. Rule as the data show it: active = GI50 up to about 1.1 µM and inactive = higher. Where only a bound is given, the exact number is not on record here.

Regarding `O=C(CSc1nnc(Cc2ccccc2)o1)Nc1ccc(Cl)cc1[N+](=O)[O-]`, the GI50 (usually the concentration that inhibits growth by half) is 17.4 µM (inactive) in [1]; 3.17 µM (inactive) in assay [2]; 25.1 µM (inactive) in assay [3]; 24.7 µM (inactive) in assay [4]; 17.5 µM (inactive) in [5]; 14 µM (inactive) in [6]. Further, the GI50 in assay [7] is 18.9 µM (inactive); in assay [8], 16.9 µM (inactive); in assay [9] it was 15.9 µM (inactive); in assay [10], 20.3 µM (inactive); in [11] it was 16.5 µM (inactive); in [12], 19.7 µM (inactive). Besides, the GI50 in [13] was 14.2 µM (inactive); in assay [14], 18.8 µM (inactive).
Take `CC(=O)Nn1c(Cc2ccc(Cl)cc2)nn(C)c1=O`: the GI50 in assay [1], in assay [2], in assay [15], in assay [3], in assay [4] and in [5] was > 100 µM (inactive) each time. Moreover, the GI50 in [6], in [7], in assay [16], in assay [8], in assay [17] and in assay [9] was > 100 µM (inactive) in each case. For the same compound, the GI50 in assay [18], in assay [10], in assay [19], in assay [11], in [20] and in assay [13] was > 100 µM (inactive) throughout. Also, the GI50 in assay [14] is > 100 µM (inactive).
With `CCOC(=O)c1ccc(NC2Oc3cc4c(cc3C(c3cc(OC)c(OC)c(OC)c3)C2C)OCO4)cc1` (centres undefined), the GI50 in assay [1] is 0.695 µM (active); in [2] it was 0.416 µM (active); in assay [15] it was 1.24 µM (inactive); in assay [3] it was 0.339 µM (active); in assay [4], 0.209 µM (active); in [5], 1.35 µM (inactive). The GI50 in assay [6] was 0.465 µM (active); in assay [7], 0.41 µM (active); in assay [16], 0.325 µM (active); in assay [8], 0.294 µM (active); in assay [17], 0.402 µM (active); in [9], 0.675 µM (active). For the same compound, the GI50 is 0.369 µM (active) in [18]; 4.24 µM (inactive) in [10]; 0.938 µM (active) in assay [19]; 0.556 µM (active) in [11]; 2.13 µM (inactive) in assay [20]; 0.46 µM (active) in assay [13]. Also, in [14], the GI50 was 0.649 µM (active).
Regarding `CC(=O)OCCn1c(Cc2ccc(C)cc2)nn(C(C)=O)c1=O`, the GI50 in assay [1], in assay [2], in [15], in assay [3], in assay [4] and in [5] was > 100 µM (inactive) in each case. Moreover, the GI50 in assay [6], in [7], in assay [16], in assay [8], in assay [17] and in assay [9] was > 100 µM (inactive) throughout. Further, the GI50 in assay [18], in assay [10], in assay [19], in [11], in assay [20] and in [13] was > 100 µM (inactive) throughout. Also, the GI50 in [14] is > 100 µM (inactive).
Regarding `O=C(/C=N/O)c1c(-c2ccccc2)[nH]c(-c2ccccc2)c1-c1ccccc1`, the GI50 is 7.46 µM (inactive) in [1]; 13.8 µM (inactive) in [2]; 20.9 µM (inactive) in assay [15]; 19.8 µM (inactive) in assay [3]; 5.98 µM (inactive) in assay [4]; 15.8 µM (inactive) in assay [5]. In addition, the GI50 in [6] is 26.2 µM (inactive); in [7], 2.37 µM (inactive); in assay [16], 22.1 µM (inactive); in assay [8], 16.2 µM (inactive); in assay [17] it was 15.6 µM (inactive); in assay [9] it was 11.1 µM (inactive). Further, the GI50 in [18] was 6.78 µM (inactive); in [10], 3.71 µM (inactive); in assay [19] it was 14 µM (inactive); in assay [11] it was 54.1 µM (inactive); in assay [20] it was 34 µM (inactive); in assay [13] it was 15.2 µM (inactive). The GI50 in assay [14] is 13.6 µM (inactive).
As for `COc1cc2cc(C(=O)N3C[C@H](CCl)c4c3cc(O)c3ccccc43)[nH]c2c(OC)c1OC`, the GI50 in [1] was 0.0453 µM (active); in [2], 0.108 µM (active); in assay [15], 0.234 µM (active); in assay [3], 0.174 µM (active); in [4], < 0.01 µM (active); in assay [5], 0.0133 µM (active). For the same compound, the GI50 in assay [6] was 0.147 µM (active); in [7], 0.0381 µM (active); in [16] it was 0.789 µM (active); in [8], 0.0137 µM (active); in assay [17], 0.0335 µM (active); in assay [9], 0.203 µM (active). Further, the GI50 in [18] is 0.136 µM (active); in assay [10] it was 0.31 µM (active); in assay [19] it was 0.309 µM (active); in [11] it was 0.0861 µM (active); in assay [20], 0.16 µM (active); in assay [13] it was 0.106 µM (active). Also, the GI50 in assay [14] was 0.261 µM (active).
Regarding `COc1ccc(Cc2nc3cc(C(F)(F)F)ccc3n2C[C@@H]2CCCN3CCCCC23)cc1` (some centres undefined), the GI50 is 14.6 µM (inactive) in assay [1]; 7 µM (inactive) in [2]; 19.9 µM (inactive) in assay [15]; 21.3 µM (inactive) in assay [3]; 4.81 µM (inactive) in assay [4]; 7.31 µM (inactive) in assay [5]. Moreover, the GI50 in [6] was 5.58 µM (inactive); in assay [7], 6.84 µM (inactive); in [16] it was 12.6 µM (inactive); in assay [8], 6.92 µM (inactive); in assay [17] it was 8.34 µM (inactive); in assay [9] it was 15.6 µM (inactive). The GI50 in [18] is 14.2 µM (inactive); in assay [10] it was 13.6 µM (inactive); in assay [19], 5.62 µM (inactive); in assay [11], 5.55 µM (inactive); in assay [20] it was 2 µM (inactive); in [13], 5.69 µM (inactive). In assay [14], the GI50 is 11.7 µM (inactive).
Regarding `CC(C)=CCC/C(C)=C/COc1c2ccoc2cc2oc(=O)ccc12` [BERGAMOTTIN], the GI50 in [1] was 27.4 µM (inactive); in assay [2], 19 µM (inactive); in [15] it was 48.1 µM (inactive); in [3], 37.8 µM (inactive); in [4] it was 16.4 µM (inactive); in assay [5], 38.3 µM (inactive). Besides, the GI50 in assay [6] is 23.8 µM (inactive); in assay [7] it was 15.4 µM (inactive); in assay [16], 44 µM (inactive); in assay [8], 14.9 µM (inactive); in assay [17], 19.1 µM (inactive); in assay [9], 16 µM (inactive). Besides, the GI50 in assay [18] was 35 µM (inactive); in assay [10], 22.2 µM (inactive); in assay [19] it was 50.2 µM (inactive); in assay [11] it was 32.4 µM (inactive); in [20] it was 28.2 µM (inactive); in [13], 10.7 µM (inactive). Further, in assay [14], the GI50 is 41.4 µM (inactive).
On to `C[C@@H](c1ccccc1)N1CN(C(=O)OCc2ccccc2)C(C)(C)CC1=O`, for which the GI50 in [1] was > 100 µM (inactive); in assay [2], > 100 µM (inactive); in assay [15], > 100 µM (inactive); in assay [3] it was > 100 µM (inactive); in assay [4], 66.8 µM (inactive); in [5], > 100 µM (inactive). The GI50 was > 100 µM (inactive) in assay [6]; > 100 µM (inactive) in assay [7]; > 100 µM (inactive) in [16]; 41.7 µM (inactive) in assay [8]; > 100 µM (inactive) in [17]; > 100 µM (inactive) in [9]. The GI50 in [18], in assay [10], in [19], in assay [11], in assay [20] and in [13] was > 100 µM (inactive) throughout. The GI50 in assay [14] is > 100 µM (inactive).
`CN(N)/N=N/c1[nH]cnc1C(N)=O`: the GI50 in assay [1] is 50.4 µM (inactive); in [2], 30.5 µM (inactive); in [15], 37.5 µM (inactive); in [3] it was 9.75 µM (inactive); in assay [4], 0.531 µM (active); in assay [5], 4.82 µM (inactive). In addition, the GI50 in [6] was 9.12 µM (inactive); in assay [7], 1.23 µM (inactive); in assay [16], 4.24 µM (inactive); in assay [8], 37.7 µM (inactive); in assay [17] it was 48.4 µM (inactive); in assay [9] it was 4.79 µM (inactive). Besides, the GI50 in [18] was 5.35 µM (inactive); in [10], 36.1 µM (inactive); in [19], 17.5 µM (inactive); in [11], 12.1 µM (inactive); in [20], 3.3 µM (inactive); in [13], 6.14 µM (inactive). The GI50 in [14] was 3.53 µM (inactive).
For the compound `CCSc1nn(-c2c3ccccc3nc3ccccc23)c(=S)s1`, the GI50 in [1], in assay [2], in assay [15], in assay [3], in assay [4] and in assay [5] was > 100 µM (inactive) each time. Moreover, the GI50 in assay [6], in assay [7], in [16], in [8], in assay [17] and in [9] was > 100 µM (inactive) throughout. In addition, the GI50 in assay [18], in assay [10], in [19], in [11], in assay [20] and in assay [13] was > 100 µM (inactive) in each case. Also, the GI50 in [14] was > 100 µM (inactive).

These data come from ChEMBL document CHEMBL1201862, “PubChem BioAssay data set” (2004).
